Laboratory results published in US9751851B2, “Molecules and compositions that inhibit gram negative bacteria and their uses” (THE TRUSTEES OF PRINCETON UNIVERSITY, priority 2013, dated 2017).
Entries after “also recorded” stand apart in the source; their conditions may differ.

Assays:
[1] = test system: wild-type P. aeruginosa PA14; assay: Microarray gene expression analysis, wild-type strain; assay type: cell-based; conditions: WT P. aeruginosa PA14, 100 μM
Method: Methods. Overnight P. aeruginosa PA14 cultures were back-diluted 1:1000 into 5 mL of fresh LB. 100 μM mBTL, or an equivalent amount of DMSO, was added to cultures which were grown aerobically with shaking at 37° C. for 17 hr. 9 ODs of cells were harvested for each treatment. Lysozyme (1 mg/mL in TE buffer) (Sigma) was added for 10 min at room temperature. Total RNA was prepared using the RNeasy Midi Kit (Qiagen). RNA was treated with RNase-Free DNaseI (Ambion) for 1 hr at 37° C., inactivated using DNaseI Inactivation Reagent Resin (Ambion), and re-purified using the RNeasy Mini Kit. […] The library was purified using the PCR Purification kit (Qiagen) and assessed for Cy3 and Cy5 incorporation using a Nanodrop ND-1000 Spectrophotometer (Nanodrop Technologies). […] Microarrays were scanned using an Agilent G2505C scanner and analyzed using Agilent Feature Extract software version 9.5. Resulting microarray intensity data were submitted to the PUMA Database (http://puma.princeton.edu) for archiving and analyzed using Matlab R2013a.
Overnight P. aeruginosa PA14 cultures were back-diluted 1:1000 into 5 mL of fresh LB. […] The library was purified using the PCR Purification kit (Qiagen) and assessed for Cy3 and Cy5 incorporation using a Nanodrop ND-1000 Spectrophotometer (Nanodrop Technologies). […]

[2] = test system: ΔlasRrhlR strain of P. aeruginosa; assay: Pyocyanin production in mutant lacking LasR and RhlR; assay type: cell-based; conditions: treated vs DMSO
Method: (§1) Methods. The oxidized form of pyocyanin imparts a green color to P. aeruginosa cultures, making the production of pyocyanin convenient to monitor by UV/Vis absorbance. Overnight P. aeruginosa cultures were subcultured into 5 mL fresh medium at 1:1000 dilution. Synthetic compounds were assayed at 100 μM for end point assays and at concentrations ranging from 200 nM to 200 μM for titrations following 17 hr of aerobic growth with shaking at 37° C. Cells were separated from culture fluids via centrifugation at 13,000 rpm for 15 min. Culture fluids were passed through 0.22 μm syringe driven filters (Millipore). Cell-free culture fluids were analyzed for pyocyanin using wavelength scans on a Beckman Coulter DU-800 spectrophotometer from 200 nm to 800 nm 695 nm was chosen for graphical representation. Titration data were fit with a variable-slope sigmoidal dose-response curve using GraphPad Prism to determine the IC50 values.
The compounds were designed to be AHL analogs that bind and antagonize LasR and/or RhlR. If either receptor were the target, a ΔlasRrhlR strain of P. aeruginosa would not be expected to have a further reduction of pyocyanin when treated with an inhibitor.

[3] = test system: wild-type P. aeruginosa PA14; assay: microbe, parasite or virus in culture; assay type: cell-based; conditions: for Efficacy (%): Table 3, reduction of pyocyanin vs WT P. aeruginosa PA14: 0% = WT level, 100% = background medium; for inhibition of pyocyanin production (in words): wild-type P. aeruginosa PA14, end point assays at 100 μM
Method: as §1
The compounds of the first library were assayed in wild-type (WT) P. aeruginosa PA14. Pyocyanin was used as a read-out for quorum sensing activity based on its absorbance at 695 nm. The efficacy of the compounds at reducing pyocyanin levels was calculated with respect to WT levels of pyocyanin, where WT levels of pyocyanin would lead to a 0% efficacy, and an absorbance equal to the background medium would lead to a 100% efficacy. Agonists that increase pyocyanin production have negative efficacy values.

RhlR = target: T1, RhlR (Pseudomonas aeruginosa, UniProt P54292); assay: RhlR-GFP assay (rhlA-gfp reporter in recombinant E. coli); assay type: cell-based, P. aeruginosa
T1 construct: expressed in transfected cells; host or cells: E. coli BL21-Gold (DE3) carrying pET23b-rhlR
T1 sequence (P54292 whole entry): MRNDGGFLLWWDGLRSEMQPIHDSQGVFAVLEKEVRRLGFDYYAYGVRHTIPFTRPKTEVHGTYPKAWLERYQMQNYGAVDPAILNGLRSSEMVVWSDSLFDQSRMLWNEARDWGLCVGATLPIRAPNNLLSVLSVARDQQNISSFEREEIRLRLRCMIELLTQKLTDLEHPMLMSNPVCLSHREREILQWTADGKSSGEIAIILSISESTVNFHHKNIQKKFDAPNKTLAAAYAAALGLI
Method: (§2) Methods. The LasR-GFP assays were performed in E. coli strain BL21 DE3 Gold (Agilent) carrying pET23b (Novagen) containing lasR (maintained with 100 μg/mL ampicillin) and carrying plasmid pEVS141 (31) containing the rsaL promoter driving expression of gfp (maintained with […] of kanamycin.) The RhlR-GFP assays were performed in E. coli strain BL21 DE3 Gold (Agilent) carrying pET23b (Novagen) containing rhlR (maintained with 100 μg/mL ampicillin) and carrying plasmid pEVS141 containing the rhlA promoter driving expression of gfp (maintained with 50 μg/mL of kanamycin.) These E. coli strains were grown overnight and subcultured into fresh medium with appropriate antibiotics at a 1:100 dilution and grown shaking for 8 hr at 37° C. for the LasR-GFP strain and 12 hr for the RhlR-GFP construct. 50 nM 3OC12-HSL or 20 μM C4-HSL was added to the LasR-GFP and RhlR-GFP preparations, respectively. Compounds were tested at 1 mM for antagonism and at 100 nM or 20 μM for agonism. These concentrations were chosen for agonism studies to match the concentrations of autoinducers used in the experiments. For antagonism studies, the EC95 concentration was used for each receptor. GFP was measured on an Envision plate reader.
(§3) The LasR-GFP assays were performed in E. coli strain BL21 DE3 Gold (Agilent) carrying pET23b (Novagen) containing lasR (maintained with 100 μg/mL ampicillin) and carrying plasmid pEVS141 (31) containing the rsaL promoter driving expression of gfp (maintained with 50 μg/mL of kanamycin.) The RhlR-GFP assays were performed in E. coli strain BL21 DE3 Gold (Agilent) carrying pET23b (Novagen) containing rhlR (maintained with 100 μg/mL ampicillin) and carrying plasmid pEVS141 (31) containing the rhlA promoter driving expression of gfp (maintained with 50 μg/mL of kanamycin.) These E. coli strains were grown overnight and subcultured into fresh medium with appropriate antibiotics at a 1:100 dilution and grown shaking for 8 hr at 37° C. for the LasR-GFP strain and 12 hr for the RhlR-GFP construct. 50 nM 3OC12-HSL or 20 μM C4-HSL was added to the LasR-GFP and RhlR-GFP preparations, respectively. Compounds were tested at 1 mM for antagonism and at 100 nM or 20 μM for agonism. These concentrations were chosen for agonism studies to match the concentrations of autoinducers used in our experiments. For antagonism studies, we used the EC95 concentration for each receptor. GFP was measured on an Envision plate reader.

LasR = target: T2, LasR (Pseudomonas aeruginosa, UniProt P25084); assay: LasR-GFP assay (rsaL-gfp reporter in recombinant E. coli); assay type: cell-based, P. aeruginosa
T2 construct: expressed in transfected cells; host or cells: E. coli BL21-Gold (DE3) carrying pET23b-lasR
T2 sequence (P25084 whole entry): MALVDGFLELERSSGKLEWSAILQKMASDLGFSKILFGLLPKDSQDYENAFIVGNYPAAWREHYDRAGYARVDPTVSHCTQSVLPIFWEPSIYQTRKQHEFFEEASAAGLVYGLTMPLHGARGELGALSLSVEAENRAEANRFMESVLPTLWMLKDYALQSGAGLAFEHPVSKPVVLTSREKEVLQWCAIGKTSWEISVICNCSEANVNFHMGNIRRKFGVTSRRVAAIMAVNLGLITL
Method: as §2, §3

[4] = test system: A549 human lung cells infected with P. aeruginosa PA14; assay: A549 human lung cell infection (propidium iodide uptake); assay type: cell-based; conditions: wild-type and lasR mutant strains; 100 μM compound
Method: Methods. Human A549 cells were grown in CellStar tissue culture flasks. Prior to infection, the A549 cells were treated with trypsin-EDTA (CellGro), split, counted, and aliquotted into 96 well plates at 20,000 mammalian cells/well (cell counts were estimated using Trypan Blue (CellGro) exclusion). Cells were grown for 20 hr at 37° C. in DMEM (Invitrogen). Cells were washed 3× with warm PBS (Gibco). 100 μL of “master mix” was added to each well for each condition. Master mix contained 1 mL pre-warmed-PBS, 5 μL of 2 mg/mL propidium iodide (Bioprobes), 1 μL of a 100 mM inhibitor stock or DMSO, and 10 μL of OD600=2 P. aeruginosa PA14 grown in the presence of mBTL or DMSO. Infections were monitored using an EnVision plate reader every 2 hr with the RFP filter supplied by GE.

O=C(COc1cccc(Br)c1)Nc1ccnc(C(F)(F)F)c1 [compound 16, 4-amino-2-trifluoromethylpyridine-C6-3-bromophenoxyhybrid]
effect on pyocyanin biosynthetic genes (microarray) [1]: none of the pyocyanin biosynthetic genes are impacted | pyocyanin levels in strain lacking LasR and RhlR [2]: pyocyanin levels are further reduced | Efficacy (%) ([3]; listed as Table 3 entry 18): 99% | Efficacy (%) ([3]; listed as drawing 76): 99 ± 0.3% | inhibition of pyocyanin production (in words) [3]: highly effective at blocking pyocyanin production

chlorolactone [CL]
RhlR agonism (in words) (RhlR; 20 μM, no autoinducer): does not agonize either receptor | inhibition of RhlR-directed transcription in E. coli (in words) (RhlR; tested at 1 mM with C4-HSL): more potent inhibitor of both LasR- and RhlR-directed transcription in E. coli than is mBTL; also recorded: inhibits LasR- and RhlR-controlled transcription | inhibition of pyocyanin production (in words) [3]: Neither CL nor CTL inhibited pyocyanin production; also recorded: no in vivo inhibition of pyocyanin production | LasR agonism (in words) (LasR; 100 nM, no autoinducer): does not agonize either receptor | inhibition of LasR-directed transcription in E. coli (in words) (LasR; tested at 1 mM with 3OC12-HSL): more potent inhibitor of both LasR- and RhlR-directed transcription in E. coli than is mBTL; also recorded: inhibits LasR- and RhlR-controlled transcription | killing of A549 cells by P. aeruginosa [4]: does not attenuate killing of A549 lung cells
